Tested on: P12-Ichikawa
Assay: cell viability relative to DMSO control; higher = less cytotoxic
Settings: 48 h
Method in brief: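 NOMO1 or SEM cells were plated at 500 cells/well and P12-Ichikawa cells at 1000 cells/well in 1536-well plates (5 μl), after each leukemia line had been adapted for at least four passages in each medium. Pin dosing delivered library compounds in DMSO at 11 threefold concentrations, 47 μM to 0.79 nM. CellTiter-Glo One luminescence was read after 48 h at 37°C. Viability is reported as a per-plate percentage of DMSO wells, with cell-free wells as background.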

[1] = HPLM + 10% dialyzed FBS, 0.000781 µM
[2] = HPLM + 10% dialyzed FBS, 0.00234 µM
[3] = HPLM + 10% dialyzed FBS, 0.00702 µM
[4] = HPLM + 10% dialyzed FBS, 0.0211 µM
[5] = HPLM + 10% dialyzed FBS, 0.0632 µM
[6] = HPLM + 10% dialyzed FBS, 0.19 µM
[7] = HPLM + 10% dialyzed FBS, 0.569 µM
[8] = HPLM + 10% dialyzed FBS, 1.71 µM
[9] = HPLM + 10% dialyzed FBS, 5.12 µM
[10] = HPLM + 10% dialyzed FBS, 15.4 µM
[11] = HPLM + 10% dialyzed FBS, 46.1 µM
[12] = RPMI 5 mM glucose + 10% FBS, 0.000781 µM
[13] = RPMI 5 mM glucose + 10% FBS, 0.00234 µM
[14] = RPMI 5 mM glucose + 10% FBS, 0.00702 µM
[15] = RPMI 5 mM glucose + 10% FBS, 0.0211 µM
[16] = RPMI 5 mM glucose + 10% FBS, 0.0632 µM
[17] = RPMI 5 mM glucose + 10% FBS, 0.19 µM
[18] = RPMI 5 mM glucose + 10% FBS, 0.569 µM
[19] = RPMI 5 mM glucose + 10% FBS, 1.71 µM
[20] = RPMI 5 mM glucose + 10% FBS, 5.12 µM
[21] = RPMI 5 mM glucose + 10% FBS, 15.4 µM
[22] = RPMI 5 mM glucose + 10% FBS, 46.1 µM
[23] = RPMI 5 mM glucose + 10% dialyzed FBS, 0.000781 µM
[24] = RPMI 5 mM glucose + 10% dialyzed FBS, 0.00234 µM
[25] = RPMI 5 mM glucose + 10% dialyzed FBS, 0.00702 µM
[26] = RPMI 5 mM glucose + 10% dialyzed FBS, 0.0211 µM
[27] = RPMI 5 mM glucose + 10% dialyzed FBS, 0.0632 µM
[28] = RPMI 5 mM glucose + 10% dialyzed FBS, 0.19 µM
[29] = RPMI 5 mM glucose + 10% dialyzed FBS, 0.569 µM
[30] = RPMI 5 mM glucose + 10% dialyzed FBS, 1.71 µM
[31] = RPMI 5 mM glucose + 10% dialyzed FBS, 5.12 µM
[32] = RPMI 5 mM glucose + 10% dialyzed FBS, 15.4 µM
[33] = RPMI 5 mM glucose + 10% dialyzed FBS, 46.1 µM

SMILES | cell viability [1] | cell viability [2] | cell viability [3] | cell viability [4] | cell viability [5] | cell viability [6] | cell viability [7] | cell viability [8] | cell viability [9] | cell viability [10] | cell viability [11] | cell viability [12] | cell viability [13] | cell viability [14] | cell viability [15] | cell viability [16] | cell viability [17] | cell viability [18] | cell viability [19] | cell viability [20] | cell viability [21] | cell viability [22] | cell viability [23] | cell viability [24] | cell viability [25] | cell viability [26] | cell viability [27] | cell viability [28] | cell viability [29] | cell viability [30] | cell viability [31] | cell viability [32] | cell viability [33]
CNC(=O)[C@H](CC/1=C/N=C\2/C=C\C\C=C12)NC(=O)[C@H](CC(C)C)CC(=O)NO | 116% | 108% | 103% | 99.5% | 116% | 111% | 116% | 105% | 108% | 30.9% | 29.8% | 99.5% | 107% | 98% | 102% | 108% | 108% | 113% | 106% | 97.9% | 28.4% | 33.3% | 105% | 107% | 107% | 112% | 115% | 114% | 114% | 105% | 107% | 24.7% | 32.1%
CC/1=C(/N2[C@H](SC1)[C@H](NC(=O)C(N)C3=CC=CC=C3)C2=O)C(O)=O (stereo not given in full) | 119% | 122% | 129% | 133% | 136% | 135% | 133% | 136% | 144% | 136% | 138% |  |  |  |  |  |  |  |  |  |  |  |  |  |  |  |  |  |  |  |  |  | 
CN1CCN(C(=O)O[C@H]2c3nccnc3C(=O)N2c2ccc(Cl)cn2)CC1 | 112% | 108% | 105% | 111% | 104% | 110% | 103% | 108% | 101% | 98.2% | 99.9% | 96.8% | 102% | 106% | 106% | 101% | 106% | 103% | 95.5% | 93% | 95.1% | 88% | 98.6% | 102% | 98.9% | 105% | 92.9% | 102% | 101% | 99.1% | 102% | 93.6% | 85.1%
CN(C)C(=O)C(CCN1CCC(O)(c2ccc(Cl)cc2)CC1)(c1ccccc1)c1ccccc1 | 122% | 123% | 133% | 122% | 129% | 125% | 127% | 116% | 127% | 107% | 69.2% |  |  |  |  |  |  |  |  |  |  |  |  |  |  |  |  |  |  |  |  |  | 
C[C@H]1COC/2=C1/C(=O)C(=O)C3=C4CCCC(C)(C)C4=CC=C23 | 112% | 118% | 121% | 129% | 127% | 134% | 137% | 124% | 129% | 118% | 94% |  |  |  |  |  |  |  |  |  |  |  |  |  |  |  |  |  |  |  |  |  | 
O=C1NC(=O)/C(=C/c2ccc(-c3ccc(F)cc3O)o2)S1 | 113% | 117% | 116% | 121% | 112% | 116% | 108% | 107% | 97.7% | 97.9% | 89.7% | 116% | 117% | 112% | 112% | 112% | 111% | 102% | 90.4% | 90.1% | 80% | 65.7% | 115% | 120% | 121% | 117% | 117% | 121% | 117% | 88.2% | 89.5% | 84.3% | 72.4%
Cc1nc(Nc2n[nH]c3c2CN(C(=O)N[C@H](CN(C)C)c2ccccc2)C3(C)C)c2sccc2n1 | 84.9% | 84.7% | 76.4% | 81% | 75.1% | 73.5% | 72.6% | 53.9% | 52.3% | 45.4% | 15.6% | 82.3% | 81.7% | 70.8% | 60% | 62.3% | 59.3% | 53.4% | 38.5% | 41.4% | 27.7% | 12.8% | 80% | 81.4% | 77.2% | 72.1% | 63.6% | 56% | 51.4% | 40.6% | 38.8% | 32.3% | 15.8%
CC(C)(O)c1cc2nc(-c3cnc(N)nc3)nc(N3CCOCC3)c2s1 | 120% | 121% | 122% | 125% | 118% | 111% | 108% | 86.2% | 74.1% | 72.6% | 70% | 117% | 127% | 121% | 112% | 114% | 103% | 81.8% | 66.5% | 61% | 49.4% | 48.8% |  |  |  |  |  |  |  |  |  |  | 
COc1cc(CNC(=O)CCCC/C=C/C(C)C)ccc1O | 108% | 99.4% | 106% | 102% | 102% | 101% | 13.3% | 11% | 11% | 12.3% | 14.1% | 104% | 105% | 109% | 106% | 104% | 119% | 95.2% | 12.2% | 12.2% | 10.1% | 10.5% | 111% | 103% | 106% | 108% | 116% | 112% | 32.9% | 21.3% | 22.2% | 14.3% | 15.7%
CC(C)[C@H](N)C(=O)OCCOC[N]1C=NC2=C1\N=C(N)/NC2=O | 124% | 124% | 121% | 125% | 128% | 126% | 131% | 131% | 123% | 123% | 119% | 123% | 135% | 122% | 121% | 128% | 150% | 146% | 152% | 140% | 132% | 146% |  |  |  |  |  |  |  |  |  |  | 
CC/1=C(\O)C(=O)\C=C2/C1=C/C=C3\[C@@]2(C)CC[C@@]4(C)[C@@H]5C[C@@](C)(CC[C@]5(C)CC[C@]34C)C(O)=O | 105% | 96.7% | 103% | 103% | 114% | 109% | 104% | 98.5% | 56.4% | 5.75% | 5.87% | 97.4% | 97.3% | 104% | 96.9% | 102% | 97.2% | 106% | 75.9% | 22.5% | 5.4% | 4.66% | 96.1% | 94.9% | 98.8% | 101% | 95.6% | 94.8% | 97.9% | 71.1% | 16.6% | 5.81% | 4.82%
O=C(Nc1cccnn1)N1CCC(=Cc2cccc(Oc3ccc(C(F)(F)F)cn3)c2)CC1 | 92.9% | 94.1% | 91.4% | 11.9% | 106% | 103% | 101% | 101% | 102% | 94.4% | 87.4% | 85% | 86.8% | 96% | 12.6% | 101% | 103% | 99.7% | 103% | 95.7% | 80.3% | 76.8% | 92% | 93.9% | 101% | 47.1% | 110% | 100% | 102% | 105% | 101% | 90.3% | 81.5%
Cc1noc(-c2ccc(CSCCC(=O)O)cc2)c1NC(=O)OC(C)c1ccccc1Cl (stereo not given) | 98.3% | 99.3% | 97.1% | 102% | 95.4% | 101% | 101% | 107% | 99% | 88.6% | 70.2% | 88.3% | 89.1% | 80.9% | 87.4% | 86.4% | 95.7% | 97.3% | 94.7% | 93.1% | 87.3% | 85.3% | 90.3% | 90% | 91.7% | 96.7% | 91.6% | 102% | 84.8% | 89.1% | 97.9% | 89.3% | 79.5%
C[C@@H](O)[C@@H]1NC(=O)[C@H](CCCCN)NC(=O)[C@@H](Cc2c[nH]c3ccccc23)NC(=O)[C@H](Cc2ccccc2)NC(=O)[C@@H](NC(=O)[C@H](N)Cc2ccccc2)CSSC[C@@H](C(=O)N[C@H](CO)[C@@H](C)O)NC1=O | 84.1% | 94.4% | 88.9% | 90.5% | 91.7% | 94.1% | 91.3% | 95.8% | 89.4% | 92% | 95% | 76.4% | 85.1% | 83% | 87.2% | 81.7% | 81.3% | 83% | 83.8% | 86.4% | 78.8% | 81% | 83% | 80.8% | 85.7% | 82.6% | 84.9% | 79.8% | 80.1% | 84.7% | 79.8% | 79.9% | 79.7%
OC[C@H]1O[C@@H](Oc2cc(O)cc(/C=C/c3ccc(O)cc3)c2)[C@H](O)[C@@H](O)[C@@H]1O | 98.2% | 110% | 108% | 113% | 113% | 107% | 108% | 131% | 110% | 117% | 117% | 110% | 114% | 106% | 113% | 116% | 125% | 117% | 123% | 105% | 103% | 101% | 89.9% | 109% | 105% | 105% | 114% | 107% | 115% | 112% | 103% | 102% | 101%
Cc1cccc(/C=N/Nc2cc(N3CCOCC3)nc(OCCc3ccccn3)n2)c1 | 95.8% | 102% | 92% | 104% | 103% | 96.7% | 89.5% | 79% | 67.6% | 42% | 28.4% | 92% | 97.5% | 92.7% | 99% | 100% | 96.8% | 79.5% | 64.3% | 53.2% | 45% | 26.4% | 90% | 89.4% | 88.5% | 89.5% | 89.8% | 80.6% | 71.5% | 60.7% | 52.3% | 40% | 24.9%
